Results on two molecules are retold here after PMC6493773, “Structure and mechanism of TagA, a novel membrane-associated glycosyltransferase that produces wall teichoic acids in pathogenic bacteria” (PLoS Pathogens, 2019).

In assay [1] the target is T1, full-length TagA from S. aureus (Staphylococcus aureus, UniProt Q7A714).
T1 construct: gene tarA; full-length; strain and plasmid only in supplement
Description: anion-exchange HPLC of UDP formation, […] nm. It is filed as biochemical. The following applies: 200 nM enzyme; UDP-ManNAc made in situ from 100 μM UDP-GlcNAc by MnaA; 100 μM lipid-α analog; pH 7.5, 250 mM NaCl, 30°C.

Assay [2] deals with T2, full-length TagA from T. italicus (UniProt D3T4E0).
T2 construct: gene Thit_1850; full-length (195 + 49 C-terminal residues); purification details only in supplement
Description: anion-exchange HPLC of UDP formation, […] nm. It counts as biochemical, Thermoanaerobacter thermocopriae. The following applies: 200 nM enzyme; UDP-ManNAc made in situ from 100 μM UDP-GlcNAc by MnaA; 100 μM lipid-α analog; pH 7.5, 250 mM NaCl, 30°C.

T2 sequence (D3T4E0 entry or part of it): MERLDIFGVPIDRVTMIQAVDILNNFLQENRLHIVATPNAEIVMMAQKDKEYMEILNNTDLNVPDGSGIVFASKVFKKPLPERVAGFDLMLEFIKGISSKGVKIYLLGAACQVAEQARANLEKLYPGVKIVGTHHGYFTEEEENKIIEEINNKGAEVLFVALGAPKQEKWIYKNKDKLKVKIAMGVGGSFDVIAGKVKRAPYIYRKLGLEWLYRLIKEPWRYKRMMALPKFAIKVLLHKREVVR
T1 sequence (Q7A714 whole entry): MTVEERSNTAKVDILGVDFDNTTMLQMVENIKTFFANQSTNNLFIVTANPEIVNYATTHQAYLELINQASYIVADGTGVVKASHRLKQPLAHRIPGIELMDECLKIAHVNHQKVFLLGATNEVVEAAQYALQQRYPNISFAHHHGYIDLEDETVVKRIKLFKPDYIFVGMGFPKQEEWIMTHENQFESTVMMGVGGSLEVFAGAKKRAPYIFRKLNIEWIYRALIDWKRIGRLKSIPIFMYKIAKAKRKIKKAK

Consider `CC(=O)N[C@@H]1[C@@H](OP(=O)(O)OP(=O)(O)OC[C@H]2O[C@@H](n3ccc(=O)[nH]c3=O)[C@H](O)[C@@H]2O)O[C@H](CO)[C@@H](O)[C@@H]1O` [UDP-ManNAc], for which the “anion-exchange HPLC of UDP formation, 271 nm” value in assay [1] is “full-length TagA enzymes from T. italicus and S. aureus exhibit similar transferase activities in vitro”; in assay [2], “we reconstituted its GT activity in vitro using UDP-ManNAc and a lipid-α analog”.

As for `CCCCCCCCCCCCCOP(=O)(O)OP(=O)(O)O[C@H]1O[C@H](CO)[C@@H](O)[C@H](O)[C@H]1NC(C)=O` [lipid-α analog], the “anion-exchange HPLC of UDP formation, 271 nm” value in assay [2] is “using UDP-ManNAc and a lipid-α analog that replaces its undecaprenyl chain with tridecane”.
